Results published in patent US8772504B2, “Substituted benzoxazole, benzimidazole, oxazolopyridine and imidazopyridine derivatives as gamma secretase modulators” (Janssen Pharmaceuticals, Inc., priority 2009, dated 2014).
pIC50: −log10 of the molar value.

Tests used:
Aβ42 = assay: Screening for γ-secretase-modulating activity, Method 2: Aβ42 Alphalisa on SKNBE2 cell supernatant; format: cell-based; conditions: Method 2, Table 3c, SKNBE2 cells carrying APP 695 wild type, overnight incubation
Experimental: (§1) Screening was carried out using SKNBE2 cells carrying the APP 695—wild type, grown in Dulbecco's Modified Eagle's Medium/Nutrient mixture F-12 (DMEM/NUT-mix F-12) (HAM) provided by Invitrogen (cat no. 10371-029) containing 5% Serum/Fe supplemented with 1% non-essential amino acids, 1-glutamine 2 mM, Hepes 15 mM, penicillin 50 U/ml (units/ml) en streptomycin 50 μg/ml. Cells were grown to near confluency.
(§2) The screening was performed using a modification of the assay as described in Citron et al (1997) Nature Medicine 3: 67. Briefly, cells were plated in a 384-well plate at 10^4 cells/well in Ultraculture (Lonza, BE12-725F) supplemented with 1% glutamine (Invitrogen, 25030-024), 1% non-essential amino acid (NEAA), penicillin 50 U/ml en streptomycin 50 μg/ml in the presence of test compound at different test concentrations. The cell/compound mixture was incubated overnight at 37° C., 5% CO2. The next day the media were assayed by two sandwich immuno-assays, for Aβ42 and Aβtotal.
(§3) Aβtotal and Aβ42 concentrations were quantified in the cell supernatant using the Aphalisa technology (Perkin Elmer). Alphalisa is a sandwich assay using biotinylated antibody attached to streptavidin coated donorbeads and antibody conjugated to acceptor beads. In the presence of antigen, the beads come into close proximity. The excitation of the donor beads provokes the release of singlet oxygen molecules that trigger a cascade of energy transfer in the acceptor beads, resulting in light emission. To quantify the amount of Aβ42 in the cell supernatant, monoclonal antibody specific to the C-terminus of Aβ42 (JRF/cAβ42/26) was coupled to the receptor beads and biotinylated antibody specific to the N-terminus of Aβ (JRF/AβN/25) was used to react with the donor beads. To quantify the amount of Aβtotal in the cell supernatant, monoclonal antibody specific to the N-terminus of Aβ (JRF/AβN/25) was coupled to the receptor beads and biotinylated antibody specific to the mid region of Aβ (biotinylated 4G8) was used to react with the donor beads.
(§4) To obtain the values reported in Table 3c, the data were calculated as percentage of the maximum amount of amyloid Beta 42 measured in the absence of the test compound. The sigmoidal dose response curves were analyzed using non-linear regression analysis with percentage of the control plotted against the log concentration of the compound. A 4-parameter equation was used to determine the IC50.

Aβtotal = assay: Screening for γ-secretase-modulating activity, Method 2: Aβtotal Alphalisa on SKNBE2 cell supernatant; format: cell-based; conditions: Method 2, Table 3c, SKNBE2 cells carrying APP 695 wild type, overnight incubation
Experimental: as §1, §2, §3, §4

SMILES | pIC50 (Aβ42) | pIC50 (Aβtotal) | pIC50 (Aβ42; Homo sapiens) | pIC50 (Aβtotal; Homo sapiens)
COc1cccc(-c2nc3c(Nc4ccc(-n5cnc(C)c5)c(OC)n4)cccc3o2)c1 [Compound 152] | 6.63 | 5.09 | – | –
CCOc1cccc(-c2nc3c(Nc4ccc(-n5cnc(C)c5)c(F)c4)nc(C)cc3n2C)c1 [Compound 153] | 7.92 | 5.19 | – | –
Cc1cc2c(nc(-c3ccc(F)cc3)n2C)c(Nc2ccc(-n3cc(C)nc3I)c(F)c2)n1 [Compound 154] | – | – | 7.72 | 6.25
Cc1cn(-c2ccc(Nc3nc(C)cc4c3nc(-c3ccc(F)c(Br)c3)n4C)cc2F)cn1 [Compound 155] | 8.10 | < 5.00 | – | –
COc1cc(Nc2cncc3c2nc(-c2ccc(F)cc2)n3C)ccc1-n1cnc(C)n1 [Compound 158] | 6.78 | < 5.00 | – | –
COc1nc(Nc2cccc3c2nc(-c2ccc(F)cc2)n3C)ccc1-n1cnc(C)n1 [Compound 161] | 8.15 | < 5.00 | – | –
COc1nc(Nc2cccc3c2nc(-c2ccc(C(F)(F)F)cc2)n3C)ccc1-n1cnc(C)c1 [Compound 168] | 8.10 | 5.11 | – | –
COc1nc(Nc2cccc3c2nc(-c2ccc(F)c(I)c2)n3C)ccc1-n1cnc(C)c1 [Compound 169] | 8.30 | < 5.00 | – | –
COc1nc(Nc2cccc3c2nc(-c2ccccc2OC(F)(F)F)n3C)ccc1-n1cnc(C)c1 [Compound 170] | 7.44 | 5.04 | – | –
COc1nc(Nc2cccc3c2nc(-c2cccc(F)c2)n3C)ccc1-n1cnc(C)c1 [Compound 171] | 7.57 | < 5.00 | – | –
COc1nc(Nc2cccc3c2nc(-c2ccccc2C(F)(F)F)n3C)ccc1-n1cnc(C)c1 [Compound 172] | 7.64 | < 5.00 | – | –
COc1nc(Nc2cccc3c2nc(-c2cccc(N(C)C)c2)n3C)ccc1-n1cnc(C)c1 [Compound 173] | 7.70 | 5.10 | – | –
COc1nc(Nc2cccc3c2nc(-c2ccc(F)c(F)c2)n3C)ccc1-n1cnc(C)c1 [Compound 175] | 7.68 | < 5.00 | – | –
COc1nc(Nc2cccc3c2nc(-c2cccc(F)c2F)n3C)ccc1-n1cnc(C)c1 [Compound 176] | 7.64 | < 5.00 | – | –
COc1cccc(-c2nc3c(Nc4ccc(-n5cnc(C)c5)c(OC)n4)cccc3n2C)c1 [Compound 177] | 7.70 | 5.05 | – | –
COc1ccc(-c2nc3c(Nc4ccc(-n5cnc(C)c5)c(OC)n4)cccc3n2C)cc1 [Compound 178] | 7.64 | < 5.00 | – | –
CCOc1cccc(-c2nc3c(Nc4ccc(-n5cnc(C)c5)c(OC)n4)cccc3n2C)c1 [Compound 179] | 7.96 | 5.10 | – | –
COc1ccc(F)c(-c2nc3c(Nc4ccc(-n5cnc(C)c5)c(OC)n4)cccc3n2C)c1 [Compound 180] | 7.74 | < 5.00 | – | –
COc1ccc(-c2nc3c(Nc4ccc(-n5cnc(C)c5)c(OC)n4)cccc3n2C)c(F)c1 [Compound 182] | 7.41 | < 5.00 | – | –

SMILES | pIC50 (Aβ42) | pIC50 (Aβtotal) | pIC50 (Aβ42; Homo sapiens) | pIC50 (Aβtotal; Homo sapiens)
COc1cc(-c2nc3c(Nc4ccc(-n5cnc(C)c5)c(OC)n4)cccc3n2C)cc(C(F)(F)F)c1 [Compound 183] | 8.00 | 5.04 | – | –
COc1nc(Nc2cccc3c2nc(-c2ccc(F)cc2C)n3C)ccc1-n1cnc(C)c1 [Compound 185] | 7.60 | < 5.00 | – | –
COc1cc(F)cc(-c2nc3c(Nc4ccc(-n5cnc(C)c5)c(OC)n4)cccc3n2C)c1 [Compound 188] | 7.85 | 5.08 | – | –
COc1nc(Nc2cccc3c2nc(-c2ccc(F)cc2F)n3C)ccc1-n1cnc(C)c1 [Compound 190] | 7.59 | < 5.00 | – | –
COc1nc(Nc2cccc3c2nc(-c2ccc(OC(F)(F)F)cc2)n3C)ccc1-n1cnc(C)c1 [Compound 191] | 7.74 | < 5.00 | – | –
COc1nc(Nc2cccc3c2nc(-c2ccc(F)c(C(F)(F)F)c2)n3C)ccc1-n1cnc(C)c1 [Compound 192] | 7.89 | 5.05 | – | –
COc1nc(Nc2cccc3c2nc(-c2ccccc2F)n3C)ccc1-n1cnc(C)c1 [Compound 193] | 7.41 | 5.15 | – | –
COc1ccc(-c2nc3c(Nc4ccc(-n5cnc(C)c5)c(OC)n4)cccc3n2C)c(C)c1 [Compound 194] | 7.66 | < 5.00 | – | –
COc1nc(Nc2cccc3c2nc(-c2cc(C(F)(F)F)ccc2C)n3C)ccc1-n1cnc(C)c1 [Compound 195] | 7.60 | 5.19 | – | –
COc1nc(Nc2cccc3c2nc(-c2ccccc2)n3C)ccc1-n1cnc(C)c1 [Compound 196] | 7.72 | 5.07 | – | –
COc1nc(Nc2cccc3c2nc(-c2ccc(N(C)C)cc2)n3C)ccc1-n1cnc(C)c1 [Compound 197] | 7.46 | 5.08 | – | –
COc1nc(Nc2cccc3c2nc(-c2cccc(C#N)c2)n3C)ccc1-n1cnc(C)c1 [Compound 198] | 7.32 | < 5.00 | – | –
COc1cc(Nc2cc(C3CC3)nc3c2nc(-c2ccc(F)cc2)n3C)ccc1-n1cnc(C)n1 [Compound 199] | 7.89 | < 5.00 | – | –
COc1cc(Nc2ccnc3c2nc(-c2ccc(F)cc2)n3C)ccc1-n1cnc(C)n1 [Compound 200] | 7.40 | < 5.00 | – | –
COc1nc(Nc2ccnc3c2nc(-c2ccc(F)cc2)n3C)ccc1-n1cnc(C)c1 [Compound 201] | 8.40 | < 5.00 | – | –
COc1nc(Nc2cc(C)nc3c2nc(-c2ccc(F)cc2)n3C)ccc1-n1cnc(C)c1 [Compound 203] | 8.40 | < 5.00 | – | –
COc1cc(Nc2ccc(-n3cnc(C)c3)c(F)c2)c2nc(-c3ccc(F)cc3)n(C)c2n1 [Compound 204] | 7.85 | < 5.00 | – | –
Cc1cn(-c2ccc(Nc3ccnc4c3nc(-c3ccc(F)cc3)n4C)cc2F)cn1 [Compound 205] | 7.20 | < 5.00 | – | –
